Experimental data from publication PMC10080078, “Use of phage display biopanning as a tool to design CAR-T cells against glioma stem cells” (Frontiers in Oncology, 2023).
“And” between values parts separate entries of the source, which are not always exact repeats. Identical values can stand only once. Each block holds one molecule with its values, some of them ahead of it. Where no end group is shown, it is not given here.

Key:
[1] = system: GSCs; details: ref ([22], [23]), cited from earlier work; for targeting of GSCs in vitro: previously demonstrated
Experimental: We have previously isolated glioblastoma stem cell targeting peptides through a combination of in vitro and in vivo biopanning strategies ([22], [23]). In vitro biopanning was performed by screening a random 7 amino acid phage peptide library against differentiated stem cells and glioblastoma stem cells grown in culture to isolate GSC-specific targeting peptides ( Figure 1A ). Two types of in vivo biopanning were performed, one against mice with intracranial GBM xenografts ( Figure 1B ) and one with subcutaneous flank xenografts ( Figure 1C ). Two peptides were selected for use in subsequent e ... || Figure 1 Peptide selection. Schematic representation of phage display strategies used to isolate the GSC-targeting peptides E (AWEFYFP) and V (SSQPFWS). […] Authors’ elaboration based on prior data from ([22], [23]).

[2] = system: intracranial GBM xenografts; details: ref ([22], [23]); cited from earlier work
Description: (§1) Figure 1 Peptide selection. Schematic representation of phage display strategies used to isolate the GSC-targeting peptides E (AWEFYFP) and V (SSQPFWS). […] Authors’ elaboration based on prior data from ([22], [23]).

[3] = system: N-cadherin; details: by itself; ref manuscript under review; cited from earlier work
Description: Our study has illustrated the utility and feasibility of designing novel antigen-binding domains for CAR-T cells by using two short peptides of just seven amino acids each to induce functional recognition of GSCs.

[4] = target: T1, N-cadherin extracellular domain, amino acids 160-724 (Homo sapiens, UniProt P19022); experiment: Surface plasmon resonance, single cycle kinetics (Biacore T200); assay type: binding
T1 construct: Recombinant Human N-Cadherin extracellular domain, amino acids 160-724; purchased R&D Systems 1388NC050
T1 sequence (P19022 160-724): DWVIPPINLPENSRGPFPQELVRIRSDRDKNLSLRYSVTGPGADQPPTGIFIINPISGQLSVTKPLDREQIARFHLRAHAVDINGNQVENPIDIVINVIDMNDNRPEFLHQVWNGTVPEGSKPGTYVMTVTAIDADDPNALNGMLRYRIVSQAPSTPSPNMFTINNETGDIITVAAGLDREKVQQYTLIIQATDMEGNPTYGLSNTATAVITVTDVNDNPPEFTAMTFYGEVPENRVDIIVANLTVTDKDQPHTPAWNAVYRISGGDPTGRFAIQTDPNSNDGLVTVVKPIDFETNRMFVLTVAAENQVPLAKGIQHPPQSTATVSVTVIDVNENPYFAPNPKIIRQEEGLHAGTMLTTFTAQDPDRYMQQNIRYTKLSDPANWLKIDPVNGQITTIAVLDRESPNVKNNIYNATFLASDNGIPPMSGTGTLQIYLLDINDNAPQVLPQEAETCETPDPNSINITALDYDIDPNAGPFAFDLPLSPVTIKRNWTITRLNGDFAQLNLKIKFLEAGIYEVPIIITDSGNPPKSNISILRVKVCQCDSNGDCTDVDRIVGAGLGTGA
Experimental: The direct binding measurements between N-cadherin and EV peptide by surface plasmon resonance was performed by immobilizing N-cadherin protein (Recombinant Human N-Cadherin extracellular domain, amino acids 160-724, 1388NC050, R&D Systems, Minneapolis, MN) to a CM5 sensor chip surface docked in Biacore T200 (Cytiva, Marlborough, MA) at 25°C using an amine-coupling method. Prior to immobilization, the chip was primed and equilibrated with a running buffer containing 20 mM HEPES, pH 7.4, 1 mM TCEP, 2 mM CaCl2 and 150 mM NaCl at a flow rate of 10 µL/min. The carboxymethyl surface of the CM5 chip was manually activated for 7 minutes using a 1:1 ratio of 0.4 M 1-ethyl-3-(3-[…]) carbodiimide hydrochloride (EDC) and 0.1 M N-hydroxysuccinimide (NHS) to achieve a density of about 10,000 RU per flow cell. N-cadherin protein stock (1.12 µM) was diluted to 100 nM in 10 mM sodium acetate, pH 4.5, and manually injected over the surface at the same flow rate. […]
For kinetic titration experiments, the same running buffer was used except with the inclusion of 5% DMSO. […] Sensorgrams were solvent corrected, buffer referenced, and the on-rate, off-rate, and equilibrium binding constants were calculated from the sensorgrams by global fitting of a 1:1 binding model, using analysis software (version 3.0) provided with Biacore T200 instrument (Cytiva).

[5] = system: N-cadherin; experiment: Immunoblot of peptide pull-down; assay type: binding; details: biotinylated peptide 40 μg on streptavidin agarose
Experimental: Cells were lysed using the IP Lysis Buffer Protocol (Pierce, Waltham, MA) as described by the manufacturer. Biotinylated peptides (EV-b and NT-b, 40 μg) were incubated with 100 μL of streptavidin agarose resin at 4°C for 1 hour on a rotator to generate the peptide-coupled streptavidin agarose resin. The protein samples were pre-cleared by incubation of 50 μL of NT-streptavidin agarose resins (4°C on rotator for 1 hour). After centrifugation, the pre-cleared samples were incubated with 150 μL of EV-coupled streptavidin agarose resin at 4°C overnight on rotator. After PBS wash, the resin was pelleted and sent for mass spectrometry analysis (see details in Supplementary Methods ) or eluted with 4x Laemmli Sample Buffer (Bio-Rad, Hercules, CA) containing 1X DTT reducing agent (dithiothreitol, Cell Signaling Technology, Danvers, MA) and boiled for SDS-PAGE. Pulled-down proteins were then separated with a Novex™ WedgeWell™ (ThermoFisher Scientific, Waltham, MA) and transferred to polyvinylidene fluoride (PVDF) membranes (Millipore, Burlington, MA). Membrane-transferred proteins were immunoblotted with an antibody recognizing N-cadherin (1/10000, NBP2-01498, Novus Biologicals, Littleton, CO) ( Supplemental Figure 2 ).

[6] = system: subcutaneous flank GBM xenografts; details: ref ([22], [23]); cited from earlier work
Description: as §1

[7] = target: T2, Recombinant Human N-Cadherin extracellular domain, amino acids 160-724 (human, UniProt P19022 160-724); experiment: SPR; N-cadherin amine-coupled to CM5 chip (about 3500 RU), Biacore T200, 25°C; 20 mM HEPES pH 7.4, 1 mM TCEP, 2 mM CaCl2, 150 mM NaCl, 5% DMSO; single cycle kinetics, peptide 2 to 167 µM; 1:1 binding model; details: both partners purified
T2 construct: N-cadherin (CDH2), human, extracellular domain, amino acids 160-724; also called recombinant N-cadherin; recombinant extracellular N-cadherin protein; source: bought: R&D Systems
T2 sequence (looked up): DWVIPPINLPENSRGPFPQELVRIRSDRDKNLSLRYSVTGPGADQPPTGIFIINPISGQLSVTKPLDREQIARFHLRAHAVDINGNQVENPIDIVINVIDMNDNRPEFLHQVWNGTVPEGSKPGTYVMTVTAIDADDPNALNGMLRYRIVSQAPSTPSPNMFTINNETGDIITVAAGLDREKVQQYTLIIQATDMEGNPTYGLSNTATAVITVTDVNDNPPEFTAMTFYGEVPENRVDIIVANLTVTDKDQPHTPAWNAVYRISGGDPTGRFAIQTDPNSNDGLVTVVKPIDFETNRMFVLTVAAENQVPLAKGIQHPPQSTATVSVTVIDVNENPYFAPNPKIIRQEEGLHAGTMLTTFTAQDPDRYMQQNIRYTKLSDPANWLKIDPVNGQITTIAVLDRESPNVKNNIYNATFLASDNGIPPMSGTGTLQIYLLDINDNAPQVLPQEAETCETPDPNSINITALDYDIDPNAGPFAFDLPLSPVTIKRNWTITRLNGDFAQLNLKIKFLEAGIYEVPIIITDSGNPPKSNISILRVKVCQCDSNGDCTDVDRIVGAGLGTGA

[8] = target: T2, Recombinant Human N-Cadherin …; experiment: ELISA; plates coated with 2.5 μg/mL recombinant N-cadherin; biotinylated peptides at different concentrations in PBS-2%-BSA, 1 hour at RT; streptavidin-HRP; details: both partners purified

Molecule: AWEFYFP [isolated from both the in vitro and intracranial in vivo biopanning]
targeting of GSCs in vitro [1]: specificity for targeting GSCs in vitro | enrichment in in vitro biopanning [1]: one of the most enriched | enrichment in in vivo biopanning, intracranial [2]: one of the most enriched | binding of single peptide E to N-cadherin [3]: positive binding to N-cadherin

kon ([4]; CM5 chip, 25°C, 20 mM HEPES pH 7.4, 1 mM TCEP, 2 mM CaCl2, 150 mM NaCl, 5% DMSO, EV 2 to 167 µM, 1:1 model, first run, read-out: on-rate (ka)): 2620 M⁻¹ s⁻¹
Molecule: AWEFYFPGGGGSGGGGSGGGGSSSQPFWS [EV]

Molecule: FAYPEWFGGGGSGGGGSGGGGSPSWSFSQ [NT, reference compound]
N-cadherin antibody signal in peptide pull-down immunoblot [5]: absent | SPR response / KD of NT peptide ([4]; identical condition, NT peptide in SPR is GGGSGGG, could not be fitted for reliable extraction of the KD): did not exhibit significant resonance units

Molecule: SSQPFWS [V, isolated from the subcutaneous flank biopanning]
targeting of GSCs in vitro [1]: specificity for targeting GSCs in vitro | enrichment in in vivo biopanning on subcutaneous tumors [6]: one of the most enriched

Kd [7]: 9.4 µM and 8.45 µM and 7.5 µM | koff [7]: 0.0196 s⁻¹
B1: EV peptide as used in surface plasmon resonance (peptide)
peptide: AWEFYFPGGGGSGGGGSGGGGSSSQPFWS
notes: dual peptide EV; the SPR methods say only 'EV peptide'; source: synthetic peptide

binding result [8]: binds
B2: biotinylated dual peptide EV (EV-b) (peptide)
peptide: AWEFYFPGGGGSGGGGSGGGGSSSQPFWS
modifications: also: biotin conjugated, position not given here
notes: 29 amino acids; also called EV-biotinylated peptide; source: synthetic peptide (LifeTein)
